Consider 3 compounds from patent publication US20240261274A1, “TREATMENT OF MYC-DRIVEN CANCERS WITH GSPT1 DEGRADERS” (MONTE ROSA THERAPEUTICS, INC., priority 2021, published 2024).

Each structure is given as a SMILES string.

The subject of data set [1] is cells for which cereblon was knocked out. The data set is described as follows: Viability in cereblon knock-out cells. The class given is cell-based. The source says:
X-axis axis represents m concentration of compound 8; y-axis represents viability normalized to DMSO.

Data set [2] has as its system Myc target genes. The data set is described as follows: RNAseq ssGSEA of Myc target genes in NCI-H1155 and NCI-H2023. As to conditions: high N-Myc expressing cells, 0.1 μM and 1 μM. The class given is cell-based. How it is done:
A High N-Myc expressing NSCLC cell lines ([…]) and a low N-Myc expressing NSCLC cell lines (NCI-H2023) were treated with Compound 345 in culture. Cells were treated with increasing concentrations of the compound (0.0; 0.03; 0.3; 3 μM), cells were withdrawn from the culture at time points of 0, 2, and 6 hours, lysates were prepared, SDS-PAGE and immunoblotting was performed, and transfer membranes were probed for GSPT1, N-Myc, and Tubulin as a loading control (N-Myc was not probed in the NCI-2023 experiment). […] For the same cell lines, RNAseq followed by single sample gene set enrichment analysis (ssGSEA) was performed at six hours and 24 hours after treatment with Compound 345. […]
Transcriptomics experiment in NCI-H1155 and NCI-H2023 NSCLC lines: NCI-H1155 and NCI-H2023 were typically seeded in a 6 well plate (0.5×10^6 NCI-H1155 cells/mL; 0.3×10^6 NCI-H2023 cells/mL; 2 ml/well) and incubated overnight. […] Total RNA yields and quality were measured using the DeNovix DS-11 Spectrophotometer. […] Library yields were measured using a QuBit 4 fluorometer ([…], Q33238) and sizes were measured using a Tapestation 4150 (Agilent, G2992AA) and screentape (Agilent, 5067-5562). […] The modulation of Myctarget gene expression upon treatment with MRT-2359 was analyzed in RNAseq profiles of both Myc-driven (NCI-Hi 155) and non-Mycdriven (NCI-H2023) cell lines. […]

The test system of data set [3] is NCI-1155 NSCLC cell line derived xenograft. The data set is described as follows: NCI-H1155 NSCLC CDX efficacy study (Compound 345). The settings on record: oral daily 1, 3 and 10 mg/kg. The class given is in vivo, immunodeficient mice. On the procedure:
Cell line derived xenograft (CDX) models were produced for the NCI-1155 NSCLC cell line in immunodeficient mice. Oral dosing of Compound 345 was performed daily at doses of 1 mg/kg, 3 mg/kg, and 10 mg/kg with a no-drug vehicle control. Tumor volumes were measured (mm^3) at days 3, 7, 10, 14, and 17.
(§1) In vivo efficacy study: NCI-H1155, MM1 S, WSU-DLCL2, DOHH-2 cells were maintained in vitro in individual medium and conditions as recommended by the providers and incubated at 37° C. in an atmosphere of 5% CO2 in air. 0.5 million (NCI-H1155), 10 million (MM1S) or 5 million (WSU-DLCL2 and DOHH-2) cells were resuspended in typically 0.1-0.2 mL of PBS with Matrigel (50:50) and were inoculated into 6-8 weeks old BALB/c nude female (NCI-H115, WSU-DLCL2), NOD/SCID (MM1S) or CB-17SCID (DOHH-2) mice and allowed to grow to 150-200 mm3 in size. Mice were dosed orally (PO) and daily (QD) with either vehicle or Compound 345 typically at 1.0 mg/kg, 3.0 mg/kg and 10 mg/kg. […] Tumor volumes were measured at least twice weekly during the treatment period using a caliper and the volume was expressed in mm3 using the formula: V=0.5 a×b2 where a and b were the long and short diameters of the tumor, respectively. […] Data are expressed as the mean±SEM. All data was analyzed using GraphPad Prism 8.1.2 (GraphPad).

Data set [4] deals with DOHH2 lymphoma cell line derived xenograft. Nature of the data set: DOHH2 lymphoma CDX efficacy study. The class given is in vivo, immunodeficient mice. As to conditions: oral daily 3 mg/kg and 10 mg/kg. On the procedure: Additionally, cell line derived xenograft (CDX) models were produced for lymphoma cell line (DOHH2) in immunodeficient mice. Oral dosing of Compound 345 was performed daily at doses of 3 mg/kg and 10 mg/kg as well as the CHOP combination (a well-known lymphoma treatment regimen) and a no-drug vehicle control. Tumor volumes were measured (mm^3) at regular intervals over the course of up to 30 days depending on the animal.
as §1, with “size.” for “size. Mice were dosed orally (PO) and daily (QD) with either vehicle or Compound 345 typically at 1.0 mg/kg, 3.0 mg/kg and 10 mg/kg.”

Data set [5] has as its system human cell line NCI-H526 xenograft. The data set is described as follows: N-Myc-driven mouse xenograft model, NCI-H526, compound 210 oral. The class given is in vivo.

`Cc1ccc(NC(=O)NCc2ccc3c(c2)C(=O)N(C2CCC(=O)NC2=O)C3)cc1Cl` (stereo not drawn) [Compound 8]: the “induction of death (viability normalized to DMSO)” value in data set [1] is recorded as “did not induce death”.

On to `O=C1CCC(N2Cc3ccc(COC(=O)Nc4cc(OC(F)(F)F)ccc4F)cc3C2=O)C(=O)N1` (stereo not drawn) [Compound 345, (2-(2,6-dioxopiperidin-3-yl)-3-oxoisoindolin-5-yl)methyl(2-fluoro-5-(trifluoromethoxy)phenyl)carbamate], for which the “ssGSEA score, Myc gene set” value is recorded as “significant downregulation of the Myc gene set” in data set [2] (24 hours) and “modest down regulation of the Myc gene set” in data set [2] (six hours). Besides, the tumor volume entry was “anti-tumor activity and regression” in data set [3]; “anti-tumor activity” in data set [4].

For `Cc1ccc(NC(=O)OCc2ccc3c(c2)C(=O)N(C2CCC(=O)NC2=O)C3)cc1Cl` (stereo not drawn) [Compound 210], the tumor size entry in data set [5] (3 mg/kg once daily) is “tumor size decreased and remained so until the end of the study”. Also, the tumor size result in data set [5] (6 mg/kg, five days on and nine days off) was “tumor size decreased and remained so until the end of the study”. Further, in data set [5] (oral administration), the body weight result is given as “no body weight loss observed” and the tumor growth result is on record as “tumor growth inhibition”.
